Test results as given in patent publication US11020378B2, “Compounds, compositions and methods for treating insulin resistance” (UNIVERSITE PARIS DESCARTES, priority 2017, dated 2021).

Assays:
PI3K/Akt pathway = assay: Luc-Akt-PH/YFP-membrane BRET in HEK293T cells (recruitment of Akt to the membrane); type: cell-based; details: for BRET delta (recruitment of the Akt protein to the membrane): 50 μM
Excerpt: To measure the activity of the PI3-kinase pathway by the BRET technique, HEK293T cells are transfected with plasmids allowing, on the one hand, the expression of the PH (Pleckstrin Homology) domain of the Akt protein which has been fused to the luciferase and, on the other hand, a membrane-addressing sequence which has been fused to the YFP protein. When the PH domain of Akt is recruited to the membrane by the PIP3s, an energy transfer between the luciferase that is coupled to the PH domain of Akt and the membrane YFP protein takes place. The measured BRET signal is a control of the production of PIP3s at the membrane and is a reflection of the activation of the PI-3-kinase/Akt pathway in real time on cells.

[1] = Repeat-dose toxicity study in C57Bl/6J mice; type: in vivo
Experimental: A repeat-dose toxicity study was also conducted in C57Bl/6J mice (12 males, 8 weeks old). Mice were treated daily either by gavage with 30 mg/kg/day of compound of Formula (Ia) diluted in 0.5% carboxymethylcellulose; or by intraperitoneal injection with 30 mg/kg/day of compound of Formula (Ia) diluted in DMSO, or with DMSO alone, for a period of 15 days.

IRTK-Grb14 interaction = target: T1, IRTK-Grb14 interaction (Homo sapiens, UniProt P06213); assay: Co-immunoprecipitation of IRTK48-RLuc with Grb14-YFP in co-transfected HEK 293T cells; type: cell-based; details: 50 μM; 4 hours; no insulin
T1 construct: a construct bearing only the tyrosine kinase domain of the luciferase-fused receptor (IRTK48-RLuc); expressed in transfected cells; host or cells: HEK 293T
Experimental: HEK 293T cells co-transfected with a construct bearing only the tyrosine kinase domain of the luciferase-fused receptor (IRTK48-RLuc) and the Grb14 protein fused to YFP were incubated for 4 hours in the presence of compounds according to the invention. In the absence of α subunits, the tyrosine kinase domain of the insulin receptor spontaneously autophosphorylates, so it is not necessary to add insulin to stimulate the IRTK-Grb14 interaction.

HEK293T cells = assay: Growth and survival of HEK293T cells (resazurin fluorescence, 72 h); type: cell-based; details: 0.1% or 10% serum
Experimental: In order to study the effect of the compound of Formula (Ia) on cell growth and survival, HEK293T cells were cultured for 72 h at different serum concentrations (0.1%, 1%, 10%), in the absence or presence of compounds of Formula (Ia) (50 or 100 μM). The fluorescence of the cells was measured before and after treatment using a reagent containing resazurin. Since the intensity of fluorescence is correlated with the number of living cells, cell growth is estimated by relating the fluorescence measured at 72 h of treatment to that measured at t0. The presence of serum promotes cell growth. Thus, after 72 h, an increase in the cell population of 7 times at 0.1% of serum and of 10 times at 1 or 10% of serum is observed.

[2] = tested on: SREBP-1c, ACC, FAS and SCD1 expression; assay: Expression of lipogenesis genes in hepatocytes in primary culture (RT-qPCR); type: cell-based, mouse; details: condition G25i (25 mM glucose, 10 nM insulin), 24 h
Experimental: FIG. 7, the effect of the compound of Formula (Ia) according to the invention (black bars) on the expression of insulin target genes, SREBP-1c, ACC, FAS, and SCD1 (FIGS. 7A-D, respectively) involved in the lipogenesis pathway. Hepatocytes in primary culture are cultured in the presence of 5 mM glucose (G5) or 25 mM glucose (G25) and 10 nM insulin for 24 h. The relative quantification of mRNAs is performed by RT-qPCR. The values are related to the quantification of the 18S gene in the same sample in order to normalize the results. The results are the average of 3 to 5 independent experiments (*p<0.05 by Anova followed by a Newman-Keuls test).
Briefly, mouse hepatocytes in primary culture are cultured in the presence of 5 mM glucose (G5) or 25 mM glucose (G25), and 10 nM insulin for 24 h. The relative quantification of mRNAs is performed by RT-qPCR and the values are related to the quantification of the 18S gene from the same sample in order to normalize the results.

[3] = absence of insulin, results not shown

T1 sequence (P06213 1023-1298 limits assumed): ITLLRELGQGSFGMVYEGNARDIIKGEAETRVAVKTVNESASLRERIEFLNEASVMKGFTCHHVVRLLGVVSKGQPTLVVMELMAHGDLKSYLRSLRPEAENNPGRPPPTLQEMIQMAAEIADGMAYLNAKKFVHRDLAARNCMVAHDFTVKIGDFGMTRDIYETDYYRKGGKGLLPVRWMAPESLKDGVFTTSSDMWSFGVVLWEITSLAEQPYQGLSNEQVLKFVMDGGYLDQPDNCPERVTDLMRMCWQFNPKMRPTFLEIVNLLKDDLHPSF

In the case of `Cc1ccc(/C=C/C(=O)Nc2ccc(S(=O)(=O)Nc3onc(C)c3C)cc2)o1` [Ia], the “BRET delta (recruitment of the Akt protein to the membrane)” value (PI3K/Akt pathway; absence of insulin) is reported as “about 86”, the “BRET delta (recruitment of the Akt protein to the membrane)” value (PI3K/Akt pathway; presence of 5 nM insulin) is reported as “about 121” and the “concentration at which the increase in the BRET signal / PI3K/Akt activation is significant” value (PI3K/Akt pathway; [3]) is reported as 10 µM. For the same compound, the “concentration from which the effect on the BRET signal is detectable” value (PI3K/Akt pathway; [3]) was 5 µM, the “effect on the recruitment of the Akt protein to the membrane after AG1024” value (PI3K/Akt pathway; cells pre-incubated 1 h with 25 μM AG1024, Ia 50 μM, insulin 5 nM) was “no longer have any effect” and the BRET delta (PI3K/Akt pathway; without insulin) was 86 (+/−41). For the same compound, the liver appearance ([1]; 30 mg/kg/day by gavage or intraperitoneal injection) was “no difference”, the weight gain ([1]; 30 mg/kg/day by gavage or intraperitoneal injection, after 12 days of treatment) was “no difference” and the “blood glucose level measured in the post-absorptive state” value ([1]; 30 mg/kg/day, regardless of the administration mode) was “decrease”. The “toxic effect (overall conclusion)” value ([1]; HEK293T cells and repeat-dose mouse study) was “no detectable toxic effect”, the “reduction of the amount of tyrosine kinase domain of the insulin receptor co-immunoprecipitated with the Grb14 protein” value (IRTK-Grb14 interaction) was 75% and the cell growth rate (HEK293T cells; 50 μM) was “does not alter”. The cell growth rate (HEK293T cells; 100 μM) was “does not alter”, the “increase of the effect of insulin on the expression of ACC” value [2] was “about 60%” and the “increase of the effect of insulin on the expression of FAS” value [2] was “about 60%”. The “increase of the effect of insulin on the expression of SCD1” value [2] was “about 60%” and the “increase of the effect of insulin on the expression of SREBP-1c” value [2] was “about 60%”.
